Results: PMC9551036, “A selective and orally bioavailable VHL-recruiting PROTAC achieves SMARCA2 degradation in vivo” (Nature Communications, 2022)
Values joined by “and” are separate entries in the source; they are usually repeats but may differ in a detail not shown here. Equal entries are not always repeated. Where two headings read alike, the source gives them in different places.

Assays:
SMARCA4 [1] = biological target: T1, SMARCA4 (Homo sapiens, UniProt P51532); experiment: SMARCA4 capillary electrophoresis protein assay in RKO cells; format: cell-based; design: endogenous in cells; host or cells: RKO, HCT116, LU99, HCC-364, HCT-15, HCC4006, SK-N-AS; conditions: mean ± SD; for Dmax: RKO
T1 sequence (P51532 whole entry): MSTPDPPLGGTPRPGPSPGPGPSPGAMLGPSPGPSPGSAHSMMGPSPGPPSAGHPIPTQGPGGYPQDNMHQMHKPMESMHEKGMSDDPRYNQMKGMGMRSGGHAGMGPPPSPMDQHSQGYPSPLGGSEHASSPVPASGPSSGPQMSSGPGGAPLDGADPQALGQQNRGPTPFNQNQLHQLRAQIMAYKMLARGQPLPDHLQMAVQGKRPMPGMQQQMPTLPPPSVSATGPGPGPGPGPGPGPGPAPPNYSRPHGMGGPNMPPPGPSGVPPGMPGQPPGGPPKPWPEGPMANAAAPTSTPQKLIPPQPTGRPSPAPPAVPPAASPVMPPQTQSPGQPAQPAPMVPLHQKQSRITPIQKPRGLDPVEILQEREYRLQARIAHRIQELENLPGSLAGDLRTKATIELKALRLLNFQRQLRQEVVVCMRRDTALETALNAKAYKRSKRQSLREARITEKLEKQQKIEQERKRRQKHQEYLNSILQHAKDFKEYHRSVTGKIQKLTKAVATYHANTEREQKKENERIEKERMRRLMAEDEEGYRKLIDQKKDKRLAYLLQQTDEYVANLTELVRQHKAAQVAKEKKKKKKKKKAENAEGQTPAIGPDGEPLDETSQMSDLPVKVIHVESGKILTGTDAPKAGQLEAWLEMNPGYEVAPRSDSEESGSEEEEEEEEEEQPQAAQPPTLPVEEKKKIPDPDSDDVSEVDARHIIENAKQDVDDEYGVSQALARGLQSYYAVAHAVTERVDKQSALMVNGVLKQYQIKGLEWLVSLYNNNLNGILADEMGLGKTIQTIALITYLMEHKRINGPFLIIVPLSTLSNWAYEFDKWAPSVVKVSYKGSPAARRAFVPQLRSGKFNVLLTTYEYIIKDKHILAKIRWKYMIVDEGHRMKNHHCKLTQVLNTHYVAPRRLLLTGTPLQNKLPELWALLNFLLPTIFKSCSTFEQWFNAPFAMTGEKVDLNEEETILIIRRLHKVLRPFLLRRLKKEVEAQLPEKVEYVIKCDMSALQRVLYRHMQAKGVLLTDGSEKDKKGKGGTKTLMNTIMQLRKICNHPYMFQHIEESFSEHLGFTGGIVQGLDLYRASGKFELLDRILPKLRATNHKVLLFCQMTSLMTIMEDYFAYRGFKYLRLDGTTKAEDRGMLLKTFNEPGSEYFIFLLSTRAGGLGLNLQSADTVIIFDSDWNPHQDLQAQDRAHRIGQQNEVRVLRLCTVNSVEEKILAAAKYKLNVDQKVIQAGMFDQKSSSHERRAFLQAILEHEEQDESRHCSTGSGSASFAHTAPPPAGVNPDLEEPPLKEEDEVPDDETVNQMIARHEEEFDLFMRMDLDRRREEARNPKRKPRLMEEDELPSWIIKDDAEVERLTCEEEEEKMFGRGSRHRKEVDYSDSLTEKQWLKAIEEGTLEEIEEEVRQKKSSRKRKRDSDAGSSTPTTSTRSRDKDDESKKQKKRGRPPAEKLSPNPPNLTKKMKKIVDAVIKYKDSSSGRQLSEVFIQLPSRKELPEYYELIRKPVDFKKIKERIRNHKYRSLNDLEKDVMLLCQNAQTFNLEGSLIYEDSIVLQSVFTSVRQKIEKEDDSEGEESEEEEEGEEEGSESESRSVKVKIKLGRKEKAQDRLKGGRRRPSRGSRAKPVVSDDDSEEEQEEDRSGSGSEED
Description: 130,000–200,000 cells were seeded in 24-well plates and incubated until settled down or overnight. Compounds were dissolved in DMSO and added to cells in indicated concentrations using a digital dispenser following an optional media change. Cells were incubated for 4 or 18 h as indicated. For SMARCA2/4 half-life determination, 150,000 or 200,000 cells were seeded in 24-well plates. The next day, 50 µg/ml cycloheximide (Sigma) was added and cells were incubated for 1–24 h. For SMARCA2/4 re-synthesis measurements, 200,000 cells were seeded in 24-well plates. The next day, 100 nM compound 6 was added for 4 h to degrade SMARCA2/4, and a sample was taken as baseline for normalisation. To allow re-synthesis, a VHL binder (compound 32, 25 or 50 µM) was then added for 3 or 24 h. Medium was removed, cells were washed with PBS and lysed with 80 µl Lysis Buffer (MSD Tris Lysis Buffer (#R60TX-2) + Halt Inhibitor Cocktail (100x) + Benzonase 0.5 µL/ml). Samples were frozen at −80 °C and thawed at room temperature before use. Samples were transferred to a V-bottom plate and insoluble debris was pelleted by centrifugation for 5 min at maximum speed. The supernatant was transferred to a fresh plate. Master Mix and Ladder were prepared according to manufacturer’s instructions for 12–230 kDa Wes Separation Module, 8 × 25 capillary cartridges, Protein Simple #SM-W004 with Anti-Rabbit Detection Module for Wes, Peggy Sue or Sally Sue, Protein Simple #DM-001. 4.8 µl lysate were mixed with 1.2 µl Master Mix to achieve a protein concentration of ~0.5 µg/µl. Antibodies were diluted in Antibody Diluent II (SMARCA2 Sigma #HPA029981 RRID:AB_10602406 1:25–100, SMARCA4 Cell Signalling #49360 clone D1Q7F RRID:AB_2728743 1:15–120 or Abcam #ab110641 clone EPNCIR111A RRID:AB_10861578 1:60, GAPDH Abcam #ab9485 RRID:AB_307275 1:250). Wes plates were prepared and run according to manufacturer’s instructions. Proteins were quantified with accompanying Compass Software. SMARCA2/4 protein levels were normalised to GAPDH. […] Where applicable, curves were fitted using a 4-parametric logistic model.

NCI-H1568 cells = experiment: Cell viability assay (CellTiter Glo) in NCI-H1568; format: cell-based, human; conditions: for EC50: Homo sapiens, NCI-H1568, […], read-out: EC50 cell proliferation (CellTiter Glo); for IC50: NCI-H1568, (18h), CellTiter Glo, individual replicates, read-out: NCI-H1568 (18h) CTG
Description: 500–2000 cells were seeded in white, clear bottom 96-well plates (Corning or Perkin Elmer) in 180–200 µl medium per well. The next day, compounds were added using a digital dispenser and a T0 sample was measured for reference. […], and viability (luminescence) was measured using CellTiter Glo or CellTiter Glo 2.0 (Promega) according to manufacturer’s instructions after equilibrating cells and reagents at room temperature and 10–20 min incubation time while shaking.

[2] = biological target: T2, VCB: PROTAC: SMARCA2^BD ternary complex (Homo sapiens, UniProt P51531); experiment: TR-FRET ternary complex affinity and cooperativity, SMARCA2; format: binding
T2 construct: P51531-2, residues 1373-1493 with additional N-terminal SM residues; GST (TEV site) (N); His6 (TEV site) (N, cleaved yes); made in house; host or cells: SMARCA2^BD: Escherichia coli BL21(DE3)
T2 sequence (P51531 with tags, fused parts or gaps isoform P51531-2): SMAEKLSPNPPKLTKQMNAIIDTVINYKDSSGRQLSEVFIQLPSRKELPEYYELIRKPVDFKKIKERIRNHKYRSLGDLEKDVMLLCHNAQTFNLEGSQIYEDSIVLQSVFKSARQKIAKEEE

SMARCA4 [3] = biological target: T1, SMARCA4; experiment: Imaging-based SMARCA4 protein assay in RKO cells; format: cell-based; design: endogenous in cells; host or cells: RKO, HCT116, LU99, HCC-364, HCT-15, HCC4006, SK-N-AS; conditions: individual replicates
Description: 1250 cells per well in 60 µl medium were plated in flat bottom, poly-lysin coated 384-well plates (CellCarrier Ultra, Perkin Elmer). The next day, test compounds (10 µl of serial dilutions) and DMSO controls were diluted in DMEM medium such that the final DMSO content was <1% or were added using an ultrasound dispensing system. 4 wells were reserved for a background measurement. […] After aspirating the fixing solution, the cells were washed once with 25 µl PBS. 25 µl of blocking buffer (10% goat serum in PBS) was added and cells were incubated for 30 min, then washed once with PBS. Cells were stained with 20 µl of SMARCA2/4 primary antibody solution (Sigma #HPA029981 RRID:AB_10602406 1:1000 or Cell Signalling #52251 clone E9O6 RRID:AB_2799410 1:1000 in PBS with 10% FCS) for 2–4 h at room temperature. Cells were again washed once with PBS. […] The cell layer was then washed once with 25 µl PBS, the wells were filled with 25 µl PBS and the plates were sealed with an adhesive sheet. They were then imaged on the Opera Phoenix (mean intensity in the nucleus). Results were computed as percent of controls ((value of test compound − background)/(value of the negative control DMSO—background) multiplied by 100). EC50 values were computed using a 4-parametric logistic model.

[4] = biological target: VCB: PROTAC: SMARCA4^BD ternary complex (Homo sapiens, UniProt P40337+P51532); experiment: TR-FRET ternary complex affinity and cooperativity, SMARCA4; format: binding; design: P51532, residues 1448–1569 with additional N-terminal SM residues; GST (TEV site) (N); His6 (TEV site) (N, cleaved yes); made in house; host or cells: SMARCA4^BD: Escherichia coli BL21(DE3)
Sequence of VCB: PROTAC: SMARCA4^BD ternary complex (P51532 1448-1569): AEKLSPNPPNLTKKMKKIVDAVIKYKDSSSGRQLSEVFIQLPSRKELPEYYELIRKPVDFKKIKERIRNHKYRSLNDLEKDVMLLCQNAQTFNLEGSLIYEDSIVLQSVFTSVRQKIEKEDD
Sequence of VCB: PROTAC: SMARCA4^BD ternary complex (P40337 54-213): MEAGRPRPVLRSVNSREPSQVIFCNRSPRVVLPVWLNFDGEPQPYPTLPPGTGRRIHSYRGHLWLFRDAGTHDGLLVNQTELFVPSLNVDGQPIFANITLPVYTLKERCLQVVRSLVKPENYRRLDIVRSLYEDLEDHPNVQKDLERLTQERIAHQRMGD
Sequence of VCB: PROTAC: SMARCA4^BD ternary complex (Q15369 17-112 partner): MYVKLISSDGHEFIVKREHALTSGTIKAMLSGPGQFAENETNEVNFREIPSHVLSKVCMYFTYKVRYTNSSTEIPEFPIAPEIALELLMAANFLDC
Sequence of VCB: PROTAC: SMARCA4^BD ternary complex (Q15370 1-104 partner): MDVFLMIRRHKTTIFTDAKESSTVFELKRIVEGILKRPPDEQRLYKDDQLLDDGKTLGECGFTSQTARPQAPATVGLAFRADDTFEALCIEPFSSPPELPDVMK

[5] = TR-FRET competition for SMARCA2BD, without VCB, mean ± SD, read-out: TR-FRET SMARCA2BD EC50
[6] = binary, PROTAC alone, individual replicates, read-out: SMARCA2 BD EC50
[7] = 4h, read-out: RKO (4h) SMARCA4 DC50
[8] = 18h, read-out: RKO (18h) SMARCA4 DC50
[9] = PROTAC + VCB, individual replicates, read-out: Ternary SMARCA4 BD EC50 (PROTAC + VCB)
[10] = TR-FRET competition for SMARCA4BD, + VCB, mean ± SD, read-out: TR-FRET Ternary SMARCA4BD EC50 (PROTAC + VCB)

Row | SMILES | DC50 (SMARCA4 [1]; RKO (4 h)) | DC50 (SMARCA4 [1]; RKO (18 h)) | Dmax (SMARCA4 [1]; RKO (18 h)) | EC50 (NCI-H1568 cells) | EC50 [2, 5] | EC50 [2, 6] | DC50 (SMARCA4 [3]; [7]) | DC50 (SMARCA4 [3]; [8]) | EC50 [4, 9] | EC50 [4, 10] | IC50 (NCI-H1568 cells) | Dmax (SMARCA4 [1]; RKO (4 h))
1 | CN1CCC(c2ccc3c(c2)n(C2CCCC2)c2nc(=O)c4c(Br)cccc4n32)CC1 [compound 3] | > 25000 nM | 11400 nM | 82 ± 32% | 1260 nM | 48 ± 17 nM | 41.5 nM (2×) and 50.5 nM (2×) and 46.7 nM (2×) and 58.6 nM (2×) and 54.9 nM and 55.3 nM (2×) and 61.9 nM and 60.8 nM and 59.4 nM and 56.4 nM (2×) and 58.5 nM and 55.9 nM and 44.1 nM (3×) and 66.1 nM and 65.6 nM and 59.3 nM and 60.7 nM and 64.2 nM and 61.1 nM (2×) and 63.1 nM (2×) and 72.4 nM and 76.3 nM and 46.2 nM (2×) and 47.7 nM (2×) and 84.8 nM and 89.7 nM and 32 nM and 34.9 nM and 57.7 nM and 57.6 nM and 55.4 nM and 26.3 nM and 29.8 nM and 46.1 nM and 26.7 nM and 39.1 nM and 38.8 nM (2×) and 42.6 nM and 42.2 nM and 43 nM and 27.6 nM and 28.3 nM and 27.5 nM (2×) and 46 nM and 60.6 nM and 42.3 nM and 49.5 nM (2×) and 49.3 nM and 42.8 nM and 48.8 nM and 46.3 nM (2×) and 49.7 nM and 47.2 nM (2×) and 49 nM (2×) and 50.2 nM and 49.2 nM (3×) and 51.2 nM and 50.1 nM (2×) and 51.1 nM and 50.4 nM and 52.4 nM (2×) and 52.5 nM (2×) and 52 nM (2×) and 56.1 nM and 68 nM and 55.7 nM and 52.1 nM and 60.9 nM and 51.8 nM and 47 nM and 47.4 nM and 48.2 nM and 102 nM (2×) and 53.7 nM and 54.7 nM and 56.6 nM (2×) and 44.3 nM (2×) and 47.5 nM and 101 nM and 53.5 nM and 64.4 nM and 66.2 nM and 65.5 nM and 64.6 nM and 64.8 nM and 92.1 nM and 55.6 nM and 55.5 nM and 112 nM and 107 nM and 59.8 nM and 54.4 nM and 32.2 nM and 41.9 nM and 44.7 nM (2×) and 30.9 nM and 79.5 nM and 33.5 nM and 26.9 nM and 33.6 nM and 39.7 nM and 36.7 nM and 36.8 nM and 37.3 nM and 38.4 nM and 51.3 nM and 42.7 nM and 45.1 nM and 46.5 nM and 157 nM and 52.2 nM | > 25000 nM | 6980 nM and 15500 nM and 13600 nM | 101 nM and 109 nM (2×) and 108 nM and 118 nM (2×) and 103 nM and 112 nM and 115 nM (2×) and 104 nM and 76.8 nM and 91.4 nM and 77.5 nM and 72.4 nM and 95.9 nM and 122 nM and 90.9 nM and 83.6 nM and 106 nM and 89.9 nM and 93.4 nM (2×) and 86.9 nM and 97.7 nM and 84.8 nM and 184 nM and 180 nM and 117 nM and 86 nM and 87.9 nM and 87.4 nM and 189 nM and 202 nM and 148 nM and 124 nM and 121 nM and 136 nM and 97.4 nM and 130 nM and 99.2 nM and 105 nM and 102 nM | 108 ± 30 nM | – | –
2 | Cc1ncsc1-c1ccc([C@H](COC(C)CN2CCC(c3ccc4c(c3)n(C3CCCC3)c3nc(=O)c5c(Br)cccc5n43)CC2)NC(=O)[C@@H]2C[C@@H](O)CN2C(=O)[C@@H](NC(=O)C2(F)CC2)C(C)(C)C)cc1 (stereo partly drawn) [compound 9] | > 25000 nM | 1780 nM | 88 ± 16% | 45 ± 51 nM | 143 ± 27 nM | 132 nM and 149 nM and 140 nM (2×) and 172 nM and 134 nM and 115 nM and 202 nM and 128 nM | > 25000 nM | 912 nM and > 833 nM (2×) and 3.47 µM | 88.4 nM and 113 nM and 133 nM and 114 nM and 84.3 nM | 105 ± 20 nM | 48.2 nM and 116 nM and 16.6 nM | –
3 | Cc1ncsc1-c1ccc([C@H](COC(C)CN2CCC(c3ccc4c(c3)n(C3CCCC3)c3nc(=O)c5c(Br)cccc5n43)CC2)NC(=O)[C@@H]2C[C@@H](O)CN2C(=O)[C@@H](NC(=O)C2(N(C)C)CC2)C(C)(C)C)cc1 (stereo partly drawn) [compound 10] | 83 ± 22 nM | 174 ± 72 nM | 68 ± 15% | 16 ± 7 nM | 150 ± 52 nM | 120 nM and 130 nM and 128 nM and 228 nM and 217 nM and 116 nM | > 25000 nM | 103 nM and 218 nM and 235 nM | 69.6 nM and 88.2 nM and 77.2 nM and 49.4 nM | 70 ± 16 nM | 21.5 nM and 20 nM and 8.75 nM | 34 ± 6%
4 | Cc1ncsc1-c1ccc([C@H](CCCCCN2CCC(c3ccc4c(c3)n(C3CCCC3)c3nc(=O)c5c(Br)cccc5n43)CC2)NC(=O)[C@@H]2C[C@@H](O)CN2C(=O)[C@@H](NC(=O)C2(F)CC2)C(C)(C)C)cc1 [compound 11] | 15 ± 9 nM | 12 ± 3 nM | 78 ± 11% | 7 ± 3 nM | 123 ± 45 nM | 183 nM and 73.1 nM and 107 nM and > 400 nM and 65.7 nM and 113 nM and 145 nM and 121 nM and 105 nM and 125 nM and 146 nM and 228 nM and 144 nM | 20 nM and 10.1 nM and 26.4 nM and 8.2 nM | 9.56 nM and 14.6 nM and 11.5 nM and 9.12 nM and 15.1 nM | 65.3 nM and 77.7 nM and 60.4 nM | 67 ± 9 nM | 8.72 nM and 10.4 nM and 5.64 nM and 9.09 nM and 2.95 nM and 6.31 nM | 53 ± 16%
